Experiments:
[1] = tested on: NF-kB pathway, Ramos cells; experiment: NFkB/Ramos reporter assay; details: Homo sapiens, read-out: IC50 Cell-based selectivity: NF-kB pathway Ramos cells
Protocol: Cells were plated on the day prior to the assay. Media required included:
• 1. Cells were harvest from culture in Growth Medium and resuspend in Assay Medium at a density of 1.6×10^6 cells/ml. • 2. 32 μl per well of Assay medium were added to the cell-free control wells. 32 μl per well of a cell suspension were added to Unstimulated and Stimulated wells • 3. After plating, the plates were incubated in a 37° C./5% CO2 incubator for 16-20 hours. Preparation of DMSO Solution:
A solution was prepared of 5% DMSO solution (10×) in Assay Media.
A solution was prepared of 10×TNFα solution in Assay Medium. It is recommended to run a dose response curve to determine the EC80 for the Stimulation Solution.
• 1. 4 μl of 10×DMSO solution was added to each well. • 2. 4 μl of Assay Medium was added to the Unstimulated wells and to the Cell-Free wells. • 3. 4 μl of the 10×TNFα was added to the Stimulated wells. • 4. The assay plate was incubated in a humidified 37° C./5% CO2 incubator for 5 hours. Substrate Loading and Incubation
This protocol is designed for loading cells with LiveBLAzer™-FRET B/G Substrate (CCF4-AM) or CCF2-AM. If alternative substrates are used it is recommended to follow the loading protocol provided with the substrate. […]
Added 934 μl Solution C to the combined solutions from above step and vortexed. • 3. […] The cells were counted and then spun cells down and resuspended in 4° C. […]

[2] = tested on: B-cell lymphoma (Daudi cell line) xenograft; experiment: Mouse xenograft study with B-cell lymphoma (Daudi cell line); assay type: in vivo; details: 28 days, Balb/c nude mice
Protocol: The anti-tumor effect of compounds of the invention can be evaluated in vivo. For example, the anti-tumor effect of compound 7A was determined using a mouse xenograft study with B-cell lymphoma (Daudi cell line). Mice (n=8 all) were administered compound 7A over a period of 28 days. The compound was dosed at 100 mg/kg IP QD and 300 mg/kg PO QD. Tumor volume was measured over time.
The Daudi cell line culture was prepared using Daudi cell line (ATCC, USA), RPMI 1640 medium (Invitrogen, USA), and FBS (Invitrogen, Australia). […]
The mice were weighed at each dosing and recorded every day. Tumor size was measured every other day in two dimensions using a caliper, and the volume was expressed in mm^3 using the formula: V=0.5 a×b^2 where a and b were the long and short diameters of the tumor, respectively. […] Tumor volume, weight of dissected tumors, and mouse body weight were measured and recorded. […]
The difference between the mean values of tumor volume in treated and vehicle groups was analyzed for significance using one way ANOVA test at each time point after log transformation. The difference between the mean values of tumor weight in treated and vehicle groups was analyzed for significance using t-test. […]

[3] = Protein binding; assay type: in vitro ADME

For O=C(CN1CCOCC1)Nc1cccc(-c2nc(-c3c[nH]c(C(=O)N4CCCC4)c3)cs2)c1 [7A, 2-morpholino-N-(3-(4-(5-(pyrrolidine-1-carbonyl)-1H-pyrrol-3-yl)thiazol-2-yl)phenyl)acetamide], the IC50 [1] was > 100 µM, the tumor growth inhibition ([2]; 100 mg/kg IP QD) was 89% and the tumor growth inhibition ([2]; 300 mg/kg PO QD) was 87%. The fraction unbound [3] was 0.02.

From patent US8937065B2, “Compositions and methods for modulating a kinase” (Clevexel Pharma, priority 2011, dated 2015)
